Source: patent publication US12455279B2, “Personalized immunotherapy for rejuvenating activating and strengthening exhausted and dysfunctional T cells, reducing PD-1, and improving immune function” (priority 2018, dated 2025)
“Also recorded” adds a separate entry of the source.

Key:
[1] = system: PD-1 expressing smaller non-proliferating CD3+ normal human T cells; assay: PD-1 expression on smaller non-proliferating T cells (FSC/SSC gating), 1 Hr treatment; format: cell-based; conditions: 10−8M; for % reduction in % of smaller T cells expressing PD-1: vs untreated
Description: (§1) Peripheral blood lymphocytes (PBLs) were separated from normal human leukocytes of healthy donors by Ficol separation and CD3 positive T cells were separated by anti-CD3 antibody-coupled magnetic beads. The CD3+ T cells were cultured in RPMI 1640 medium supplemented with 10% heat inactivated fetal calf serum (FCS), 1% L-Glutamine, 1% sodium pyruvate, 1% non-essential amino acids, and 1% antibiotics. The cells were usually maintained for, for on average 24 hours after their separation before various molecules were added and their effects on the T cells were measured. […] It was therefore tested if neurotransmitters, neuropeptides, and/or modulators of voltage-gated ion channels can reduce PD-1 on the cell surface of T cells. Such a reduction would allow the T cells to escape the tumor-induced T cell suppression, and the activated T cells could then attach the cancer cells. As such, the expression of PD-1 on the surface of these treated and untreated T cells was monitored. […] Shorter in vitro incubation times are frequently preferable when cells are going to subsequently be returned to a subject, as they end to decrease the risk of an adverse reaction.
(§2) CD3 positive T cells of patients are a heterogenous mix of different types of T cells. […] Using this FCS and SSC analysis, T cells can be distinguished and separated by size into large proliferating T cells and smaller non-proliferating T cells.

[2] = system: CD3+ T cells of liver cancer patients; assay: Proliferation / big proliferating T cells / CD25 of CD3+ T cells of liver cancer patients; format: cell-based, human; parameters: % big/activated/proliferating T cells: concentration or dose not given beside the values; conditions: for % big/activated/proliferating T cells / Fold increase (big/activated/proliferating T cells): T cells of liver cancer patient one; for % big/activated/proliferating T cells: 60 hours culture; for Fold increase (big/activated/proliferating T cells): vs untreated; for number of T cells present in culture (FIG. 1): 60 hours after administration
Description: Blood was drawn from two patients suffering from liver cancer, patient one and patient two who both suffer from hepatocellular carcinoma. 15 mLs of blood yielded roughly 2.5×10^7 peripheral blood leucocytes, from which approximately […] positive T cells were isolated. The cells were cultured as described above, and the effects of various molecules and their combinations on those T cells were examined.
Cell proliferation was monitored in culture for 60 hours after administration of the molecule/s (FIG. 1).

[3] = system: PD-1 expressing CD3+ normal human T cells; assay: PD-1 surface expression on CD3+ T cells of healthy donors after treatment (1, 18, 24 Hr); format: cell-based; conditions: for % reduction in % of T cells expressing PD-1: vs untreated
Description: as §1

[4] = system: PD-1 expressing large proliferating CD3+ normal human T cells; assay: PD-1 expression on large proliferating T cells (FSC/SSC gating), 1 Hr treatment; format: cell-based; conditions: 10^−8M; for % reduction in % of large T cells expressing PD-1: vs untreated
Description: as §1, §2

SMILES	% of smaller T cells expressing PD-1 [1] [%]	% reduction in % of smaller T cells expressing PD-1 [1] [%]	% big/activated/proliferating T cells [2] [%]	Fold increase (big/activated/proliferating T cells) [2]	number of T cells present in culture (FIG. 1) ([2]; patient one)	% of T cells expressing PD-1 ([3]; 1 Hr treatment, 10^−8M) [%]	% reduction in % of T cells expressing PD-1 ([3]; 1 Hr treatment, 10^−8M) [%]	% of T cells expressing PD-1 ([3]; 18 Hr treatment, 10^−7M) [%]	% reduction in % of T cells expressing PD-1 ([3]; 18 Hr treatment, 10^−7M) [%]	% of T cells expressing PD-1 ([3]; 24 Hr treatment, 10^−7M) [%]	% reduction in % of T cells expressing PD-1 ([3]; 24 Hr treatment, 10^−7M) [%]	% of T cells expressing PD-1 ([3]; 24 Hr treatment, 10^−8M) [%]	% reduction in % of T cells expressing PD-1 ([3]; 24 Hr treatment, 10^−8M) [%]	effect on PD-1 expressing T cells ([3]; incubated for 24 hours)	% of large T cells expressing PD-1 [4] [%]	% reduction in % of large T cells expressing PD-1 [4] [%]	increase in the number of big, proliferating CD3 positive cells (ranking in words) ([2]; patient one, flow cytometer)
NCCc1ccc(O)c(O)c1 [Dopamine]	40.4	8.0	14	3-fold	increased the number of T cells present in culture; also recorded: most effective	30.3	17	24.90	28.40	10	51.05	22.4	−9.64	did not have a positive effect	19.1	11.2	
N[C@@H](CCC(=O)O)C(=O)O [Glutamate]	32.8	25.3	24.80	5.4-fold	increased the number of T cells present in culture; also recorded: most effective	24.65	33	23.70	31.7	15.8	22.64	16.3	20.2		13.0	39.5	most effective
